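Step 1: Grow cells in 96-well plates. Step 2: Expose to compound for 48 hours at 5 concentrations. Step 3: Interpolate endpoints linearly; if unreached, use highest concentration. The concentration for 50% growth inhibition is given as GI50. TGI is the concentration that stops growth completely.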
Legend:
Assay in all cases: NCI tumour cell line growth inhibition, 48 h
A498 renal = tested on: A498 renal
ACHN renal = tested on: ACHN renal
CAKI-1 renal = tested on: CAKI-1 renal
DU-145 prostate = tested on: DU-145 prostate
HOP-92 NSCLC = tested on: HOP-92 NSCLC
HT29 colon = tested on: HT29 colon
KM12 colon = tested on: KM12 colon
MALME-3M melanoma = tested on: MALME-3M melanoma
MDA-MB-231 breast = tested on: MDA-MB-231 breast
MOLT-4 leukemia = tested on: MOLT-4 leukemia
NCI-H460 lung = tested on: NCI-H460 lung
NCI-H522 lung = tested on: NCI-H522 lung
NCI/ADR-RES ovarian = tested on: NCI/ADR-RES ovarian
OVCAR-5 ovarian = tested on: OVCAR-5 ovarian
PC-3 prostate = tested on: PC-3 prostate
RPMI-8226 leukemia = tested on: RPMI-8226 leukemia
SF-539 CNS = tested on: SF-539 CNS
SK-MEL-2 melanoma = tested on: SK-MEL-2 melanoma
SK-MEL-5 melanoma = tested on: SK-MEL-5 melanoma
SN12C renal = tested on: SN12C renal
SNB-75 CNS = tested on: SNB-75 CNS
SW-620 colon = tested on: SW-620 colon
TK-10 renal = tested on: TK-10 renal
UACC-62 melanoma = tested on: UACC-62 melanoma
UO-31 renal = tested on: UO-31 renal

In the case of `COc1cc(/C=N/NC(=O)c2cn(C3CC3)c3c(OC)c(N4CC5CCCNC5C4)c(F)cc3c2=O)ccc1O` (stereo not given), the GI50 (A498 renal) is reported as 1760 nM, the TGI (A498 renal) is reported as 3180 nM and the GI50 (ACHN renal) is reported as 1700 nM. It also gave a TGI (ACHN renal) of 3090 nM, a GI50 (CAKI-1 renal) of 1670 nM and a TGI (CAKI-1 renal) of 3120 nM. It also gave a GI50 (DU-145 prostate) of 1860 nM, a TGI (DU-145 prostate) of 3310 nM and a GI50 (HOP-92 NSCLC) of 1660 nM. The TGI (HOP-92 NSCLC) was 3160 nM, the GI50 (HT29 colon) was 1830 nM and the TGI (HT29 colon) was 3380 nM. The GI50 (KM12 colon) was 1670 nM, the TGI (KM12 colon) was 3110 nM and the GI50 (MALME-3M melanoma) was 1690 nM. The TGI (MALME-3M melanoma) was 3210 nM, the GI50 (MDA-MB-231 breast) was 1690 nM and the TGI (MDA-MB-231 breast) was 3220 nM. For the same molecule, the GI50 (MOLT-4 leukemia) was 2300 nM, the TGI (MOLT-4 leukemia) was 5330 nM and the GI50 (NCI-H460 lung) was 1870 nM. For the same molecule, the TGI (NCI-H460 lung) was 3500 nM, the GI50 (NCI-H522 lung) was 1790 nM and the TGI (NCI-H522 lung) was 3400 nM. The GI50 (NCI/ADR-RES ovarian) was 58800 nM, the TGI (NCI/ADR-RES ovarian) was > 100000 nM and the GI50 (OVCAR-5 ovarian) was 1650 nM. The TGI (OVCAR-5 ovarian) was 3050 nM, the GI50 (PC-3 prostate) was 1740 nM and the TGI (PC-3 prostate) was 3280 nM. The GI50 (RPMI-8226 leukemia) was 1880 nM, the TGI (RPMI-8226 leukemia) was 4380 nM and the GI50 (SF-539 CNS) was 1730 nM. The TGI (SF-539 CNS) was 3210 nM, the GI50 (SK-MEL-2 melanoma) was 1850 nM and the TGI (SK-MEL-2 melanoma) was 3680 nM. It also gave a GI50 (SK-MEL-5 melanoma) of 17600 nM, a TGI (SK-MEL-5 melanoma) of 41300 nM and a GI50 (SN12C renal) of 1830 nM. For the same molecule, the TGI (SN12C renal) was 3460 nM, the GI50 (SNB-75 CNS) was 1430 nM and the TGI (SNB-75 CNS) was 2810 nM. The GI50 (SW-620 colon) was 1730 nM, the TGI (SW-620 colon) was 3270 nM and the GI50 (TK-10 renal) was 1680 nM. It also gave a TGI (TK-10 renal) of 3100 nM, a GI50 (UACC-62 melanoma) of 1720 nM and a TGI (UACC-62 melanoma) of 3280 nM. For the same molecule, the GI50 (UO-31 renal) was 1530 nM and the TGI (UO-31 renal) was 2930 nM.

— PubChem BioAssay (NCI)
